Our source for the pest or weed control and mortality values is patent US12583851B2, “Heteroaryl-substituted pyrazine derivatives as pesticides” (Elanco Animal Health GmbH, priority 2019, dated 2026).

Common to all, as to format: in vivo
The subject of test [1] is adult cat fleas (Ctenocephalides felis). The test can be described thus: Ctenocephalides felis in-vitro contact test, adult cat flea. The settings on record: after 48 hours, read-out: efficacy (fleas dead or moribund); for pest or weed control at 5 µg/cm2, 500 g/ha: 5 μg/cm^2 (=500 g/ha); for pest or weed control at 1 µg/cm2, 100 g/ha: 1 μg/cm^2 (=100 g/ha). As to the method: Ctenocephalides felis—In-Vitro Contact Tests Adult Cat Flea
9 mg compound is solved in 1 ml acetone and diluted with acetone to the desired concentration. 250 μL of the test solution is filled in 25 mL glass test tubes and homogeneously distributed on the inner walls by rotation and tilting on a shaking device (2 h at 30 rpm). With a compound concentration of 900 ppm, an inner surface of 44.7 cm^2 and a homogeneous distribution, a dose of 5 μg/cm^2 is achieved.
After the solvent has evaporated, each test tube is filled with 5-10 adult cat fleas (Ctenocephalides felis), closed with a perforated lid and incubated in a lying position at room temperature and relative humidity. After 48 hours efficacy is determined. The fleas are patted on the ground of the tubes and are incubated on a heating plate at 45-50° C. for at most 5 minutes Immotile or uncoordinated moving fleas, which are not able to escape the heat by climbing upwards, are marked as dead or moribund.
An efficacy of 100% means all fleas are dead or moribund; 0% means no fleas are dead or moribund.

Test [2] has as its system fall armyworm larvae (Spodoptera frugiperda). The test can be described thus: Spodoptera frugiperda spray test. The settings on record: 168 h, maize leaf sections, after 7 days. Put shortly:
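Compound dissolved in acetone/dimethylformamide, diluted in water containing 1000 ppm alkylarylpolyglycol ether emulsifier and sprayed onto maize leaf sections. Dried sections were infested with larvae; % mortality scored after 7 days (100% = all caterpillars killed, 0% = none).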

Test [3] has as its system larvae of the banded cucumber beetle (Diabrotica balteata). In words: Diabrotica balteata spray test. The settings on record: 168 h, after 7 days, read-out: efficacy (seedling growth); for pest or weed control at 6.4 µg/disc, 20 g/ha: 20 g/ha (=6.4 μg/well); for pest or weed control at 32 µg/disc, 100 g/ha: 100 g/ha (=32 μg/well). Put shortly: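 Germinated wheat seedlings (5 per well, on agar) sprayed with compound in acetone/DMF with emulsifier-containing water, then infested with 10–20 Diabrotica balteata larvae. Efficacy (%) scored after 7 days from seedling growth: 100% = growth as untreated uninfested control, 0% = no seedlings grown.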

In test [4] the test system is Rhipicephalus (Boophilus) microplus larvae (strain Parkhurst, resistant against synthetic pyrethroids). In words: Rhipicephalus (Boophilus) microplus in-vitro contact test, larval cattle tick. The conditions noted are these: after 48 hours, read-out: efficacy (larvae dead or moribund); for pest or weed control at 1 µg/cm2, 100 g/ha: 1 μg/cm^2 (=100 g/ha); for pest or weed control at 5 µg/cm2, 500 g/ha: 5 μg/cm^2 (=500 g/ha). Put shortly:
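Acetone solutions were coated onto glass tube walls (900 ppm gives 5 μg/cm²); after drying, 20–50 pyrethroid-resistant Parkhurst larvae added and held at 27 °C, 85% RH. At 48 h, efficacy as % larvae dead or moribund, judged by loss of negative geotaxis.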

In test [5] the test system is adult brown dog ticks (Rhipicephalus sanguineus). In words: Rhipicephalus sanguineus in-vitro contact test, adult brown dog ticks. The conditions noted are these: 48 h, 5 μg/cm^2 (=500 g/ha), after 48 hours, read-out: efficacy (ticks dead or moribund). On the procedure: Rhipicephalus sanguineus—In-Vitro Contact Tests with Adult Brown Dog Ticks
9 mg compound is solved in 1 mL acetone and diluted with acetone to the desired concentration. […] the test solution is filled in 25 mL glass test tubes and homogeneously distributed on the inner walls by rotation and tilting on a shaking device (2 h at 30 rpm). With a compound concentration of 900 ppm, an inner surface of 44.7 cm^2 and a homogeneous distribution, a dose of 5 μg/cm^2 is achieved.
After the solvent has evaporated, each test tube is filled with 5-10 adult brown dog ticks (Rhipicephalus sanguineus), closed with a perforated lid and incubated in a lying position at room temperature and relative humidity. After 48 hours efficacy is determined. The ticks are patted on the ground of the tubes and are incubated on a heating plate at 45-50° C. for at most 5 minutes Immotile or uncoordinated moving ticks, which are not able to escape the heat by climbing upwards, are marked as dead or moribund.
An efficacy of 100% means all ticks are dead or moribund; 0% means no ticks are dead or moribund.

As for `CC(NC(=O)c1cc(Br)cc(C(F)(F)F)c1)c1nccnc1-c1ncc(C(=O)N(C)C)s1` (racemic) [Example I-118, (rac)-2-(3-{1-[3-Bromo-5-(trifluoromethyl)benzamido]ethyl}pyrazin-2-yl)-N,N-dimethyl-1,3-thiazole-5-carboxamide], in test [1], the pest or weed control at 5 µg/cm2, 500 g/ha amounted to 90%. Besides, the mortality at 100 g/ha in test [2] is 100%. In addition, in test [3], the pest or weed control at 6.4 µg/disc, 20 g/ha is 100% and the pest or weed control at 32 µg/disc, 100 g/ha stood at 100%. In test [4], the pest or weed control at 1 µg/cm2, 100 g/ha is 100% and the pest or weed control at 5 µg/cm2, 500 g/ha came out at 100%.
With `CC(NC(=O)c1cc(Cl)cc(Br)c1)c1nccnc1-c1ccc(Cl)cn1` (centres unmarked) [Example I-19], the pest or weed control at 5 µg/cm2, 500 g/ha in test [1] is 80%. Also, in test [2], the mortality at 100 g/ha turned out to be 100%. In test [3], the pest or weed control at 6.4 µg/disc, 20 g/ha came to 100% and the pest or weed control at 32 µg/disc, 100 g/ha is 100%.
With `CC(NC(=O)c1cc(Br)cc(C(F)(F)F)c1)c1nccnc1-c1ncc(C(=O)N(C)CC2CC2)s1` (racemic) [Example I-119, (rac)-2-(3-{1-[3-Bromo-5-(trifluoromethyl)benzamido]ethyl}pyrazin-2-yl)-N-(cyclopropylmethyl)-N-methyl-1,3-thiazole-5-carboxamide], the pest or weed control at 5 µg/cm2, 500 g/ha in test [1] is 90%. For the same compound, the mortality at 100 g/ha in test [2] was found to be 100%. Besides, in test [3], the pest or weed control at 6.4 µg/disc, 20 g/ha stood at 100% and the pest or weed control at 32 µg/disc, 100 g/ha is 100%. Besides, in test [4], the pest or weed control at 1 µg/cm2, 100 g/ha is 100% and the pest or weed control at 5 µg/cm2, 500 g/ha came to 100%.
On to `CC(NC(=O)c1cc(Br)cc(C#N)c1)c1nccnc1-c1ccc(C(=O)N2CCOCC2)cn1` (racemic) [Example I-33, (rac)-3-Bromo-5-cyano-N-[1-{3-[5-(morpholine-4-carbonyl)pyridin-2-yl]pyrazin-2-yl}ethyl]benzamide], for which the values for the pest or weed control at 1 µg/cm2, 100 g/ha in test [1] and in test [4] were 100% and 90%, respectively. Further, the pest or weed control at 5 µg/cm2, 500 g/ha in test [1] and in test [4] was 100% throughout.
As to `CC(NC(=O)c1cc(Br)cc(OC(F)(F)F)c1)c1nccnc1-c1ncc(C(=O)N2CCOCC2)s1` (racemic) [Example I-61, (rac)-3-Bromo-N-[1-{3-[5-(morpholine-4-carbonyl)-1,3-thiazol-2-yl]pyrazin-2-yl}ethyl]-5-(trifluoromethoxy)benzamide], in test [1], the pest or weed control at 1 µg/cm2, 100 g/ha was found to be 100% and the pest or weed control at 5 µg/cm2, 500 g/ha came out at 100%. In test [4], the pest or weed control at 1 µg/cm2, 100 g/ha was 100% and the pest or weed control at 5 µg/cm2, 500 g/ha is 100%.
Take `CC(NC(=O)c1cc(Br)cc(OC(F)(F)F)c1)c1nccnc1-n1cc(C(F)(F)F)cn1` (racemic) [Example I-94, (rac)-3-Bromo-5-(trifluoromethoxy)-N-[1-{3-[4-(trifluoromethyl)-1H-pyrazol-1-yl]pyrazin-2-yl}ethyl]benzamide]: the mortality at 100 g/ha in test [2] amounted to 100%. The results for the pest or weed control at 5 µg/cm2, 500 g/ha in test [5] and in test [4] were 80% and 100%, respectively. Also, in test [3], the pest or weed control at 32 µg/disc, 100 g/ha is 100%. Moreover, in test [4], the pest or weed control at 1 µg/cm2, 100 g/ha came out at 100%.
The compound `CC(NC(=O)c1cc(Br)cc(C#N)c1)c1nccnc1-c1ccc(Cl)cn1` (racemic) [Example I-48, (rac)-3-Bromo-N-{1-[3-(5-chloropyridin-2-yl)pyrazin-2-yl]ethyl}-5-cyanobenzamide] showed a mortality at 100 g/ha in test [2] of 100%. In addition, the pest or weed control at 5 µg/cm2, 500 g/ha in test [5] came to 80%. Also, in test [3], the pest or weed control at 6.4 µg/disc, 20 g/ha was 80% and the pest or weed control at 32 µg/disc, 100 g/ha turned out to be 100%.
Consider `CC(NC(=O)c1cc(C(F)(F)F)cc(C(F)(F)F)c1)c1nccnc1-c1ncc(C(=O)N(C)CC2CC2)s1` (racemic) [Example I-51, (rac)-2-(3-{1-[3,5-Bis(trifluoromethyl)benzamido]ethyl}pyrazin-2-yl)-N-(cyclopropylmethyl)-N-methyl-1,3-thiazole-5-carboxamide], for which, in test [2], the mortality at 100 g/ha stood at 100%. In test [3], the pest or weed control at 6.4 µg/disc, 20 g/ha turned out to be 100% and the pest or weed control at 32 µg/disc, 100 g/ha turned out to be 100%. Also, in test [4], the pest or weed control at 1 µg/cm2, 100 g/ha was 90% and the pest or weed control at 5 µg/cm2, 500 g/ha was determined as 90%.
`CCNC(=O)c1ccc(-c2nccnc2C(C)NC(=O)c2cc(C(F)(F)F)cc(C(F)(F)F)c2)nc1` (racemic) [Example I-35, (rac)-6-(3-{1-[3,5-Bis(trifluoromethyl)benzamido]ethyl}pyrazin-2-yl)-N-ethylpyridine-3-carboxamide]: the pest or weed control at 1 µg/cm2, 100 g/ha in test [1] turned out to be 80%; in test [4], 100%. Also, the pest or weed control at 5 µg/cm2, 500 g/ha in test [1] and in test [4] was 100% in each case.
As for `CC(NC(=O)c1cc(C(F)(F)F)cc(C(F)(F)F)c1)c1nccnc1-c1ccc(C(=O)N(C)CC2CC2)cn1` (racemic) [Example I-32, (rac)-6-(3-{1-[3,5-Bis(trifluoromethyl)benzamido]ethyl}pyrazin-2-yl)-N-(cyclopropylmethyl)-N-methylpyridine-3-carboxamide], the pest or weed control at 5 µg/cm2, 500 g/ha in test [1] amounted to 100%. The mortality at 100 g/ha in test [2] came to 100%. In test [4], the pest or weed control at 1 µg/cm2, 100 g/ha was 100% and the pest or weed control at 5 µg/cm2, 500 g/ha stood at 100%.
For the compound `COc1ccc(-c2nccnc2C(C)NC(=O)c2cc(Br)cc(OC(F)(F)F)c2)nc1` (centres unmarked) [Example I-27], in test [1], the pest or weed control at 1 µg/cm2, 100 g/ha worked out at 80% and the pest or weed control at 5 µg/cm2, 500 g/ha worked out at 80%. In test [3], the pest or weed control at 32 µg/disc, 100 g/ha was determined as 100%. In test [4], the pest or weed control at 1 µg/cm2, 100 g/ha was found to be 90% and the pest or weed control at 5 µg/cm2, 500 g/ha came out at 80%.
For `CC(NC(=O)c1cc(C#N)cc(C(F)(F)F)c1)c1nccnc1-n1cc(C#N)cn1` (racemic) [Example I-115, (rac)-3-Cyano-N-{1-[3-(4-cyano-1H-pyrazol-1-yl)pyrazin-2-yl]ethyl}-5-(trifluoromethyl)benzamide], the mortality at 100 g/ha in test [2] worked out at 100%. Also, in test [3], the pest or weed control at 6.4 µg/disc, 20 g/ha came out at 100% and the pest or weed control at 32 µg/disc, 100 g/ha stood at 100%. Also, in test [4], the pest or weed control at 1 µg/cm2, 100 g/ha amounted to 100% and the pest or weed control at 5 µg/cm2, 500 g/ha came to 100%.
`CC(NC(=O)c1cc(Cl)cc(C(F)(F)F)c1)c1nccnc1-c1ccc(C(F)(F)F)cn1` (racemic) [Example I-46, (rac)-3-Chloro-5-(trifluoromethyl)-N-[1-{3-[5-(trifluoromethyl)pyridin-2-yl]pyrazin-2-yl}ethyl]benzamide]: the mortality at 100 g/ha in test [2] came out at 100%. Also, the pest or weed control at 32 µg/disc, 100 g/ha in test [3] was 100%. In test [4], the pest or weed control at 1 µg/cm2, 100 g/ha was 100% and the pest or weed control at 5 µg/cm2, 500 g/ha is 100%.
In test [2], `CC(NC(=O)c1cc(OC(F)F)cc(OC(F)F)c1)c1nccnc1-c1ncc(C(=O)N(C)CC2CC2)s1` (racemic) [Example I-143, (rac)-2-(3-{1-[3,5-Bis(difluoromethoxy)benzamido]ethyl}pyrazin-2-yl)-N-(cyclopropylmethyl)-N-methyl-1,3-thiazole-5-carboxamide] gave a mortality at 100 g/ha of 100%. In addition, in test [3], the pest or weed control at 6.4 µg/disc, 20 g/ha stood at 100% and the pest or weed control at 32 µg/disc, 100 g/ha was found to be 100%. In test [4], the pest or weed control at 1 µg/cm2, 100 g/ha was 100% and the pest or weed control at 5 µg/cm2, 500 g/ha was found to be 90%.
